Source: the OPERA property sets (Mansouri et al. 2018)

| Compound | logP |
| --- | --- |
| CC1C(c2ccccc2)OC(O)(c2ccccc2)CN1C (centres undefined) | 1.87 |
| C=CCOC1(c2ccccc2)CN(C)CCO1 (centres undefined) | 2.09 |
| CC(C)COC1(c2ccccc2)CN(C)CCO1 (centres undefined) | 2.17 |
| CCOC1(c2ccccc2)CN(C)CC(C)O1 (centres undefined) | 2.23 |
| CC1N(C)CCOC1(O)c1ccccc1 (centres undefined) | 1.92 |
| CN1CCOC(O)(c2cccc(C(F)(F)F)c2)C1 (centres undefined) | 1.39 |
| CN1CCOC(O)(c2ccccc2)C1 (centres undefined) | 1.54 |
| CN1CCOC(O)(c2ccc(Br)cc2)C1 (centres undefined) | 1.57 |
| CC1CN(C)CC(O)(c2ccccc2)O1 (centres undefined) | 1.79 |
| CCCOC1(c2ccccc2)CN(C)CCO1 (centres undefined) | 2.13 |
| CN1CCOC(O)C1c1ccccc1 (centres undefined) | 0.99 |
| CCOC1(c2ccccc2)OCCN(C)C1C (centres undefined) | 2.27 |
| C#CCOC1(c2ccccc2)CN(C)CCO1 (centres undefined) | 1.87 |
| CCCCOC1(c2ccccc2)CN(C)CCO1 (centres undefined) | 2.23 |
